Data published in patent US11787805B2, “N-oxide inhibitors of NLRP3 inflammasome” (BioAge Labs, Inc., priority 2022, dated 2023).

Assay: Human Liver Microsome Stability Assay (HLM)
Format: in vitro ADME
Conditions: for half-life: human, liver microsomes, read-out: HLM t1/2
Description: The stability of the N-oxide compounds provided herein was studied compared to analogs not having N-oxide. […] This enhanced metabolic stability corresponds to an extended half-life and duration of action when dosed in vivo.

| SMILES | HLM t1/2 (human liver microsomes) [min] | half-life [min] |
| --- | --- | --- |
| CCOc1cc(C(=O)N(C)Cc2c[n+]([O-])cc3cn[nH]c23)ccc1-c1cccc(F)c1 [Compound 001] |  | > 145 |
| CN(Cc1c[n+]([O-])cc2cn[nH]c12)C(=O)c1ccc(-c2cccc(F)c2)c(OC2CC2)c1 [Compound 004] |  | > 145 |
| CN(Cc1cccc2cn[nH]c12)C(=O)c1ccc(-c2cccc(F)c2)c(OC2CC2)c1 [D] |  | 1.5 |

More lines, now with the values ahead:

| HLM t1/2 (human liver microsomes) [min] | half-life [min] | SMILES |
| --- | --- | --- |
| 3.7 |  | CCOc1cc(C(=O)N(C)Cc2cncc3cn[nH]c23)ccc1-c1cccc(F)c1 [A] |
|  | 2 | CCOc1cc(C(=O)N(C)Cc2cncc3cn[nH]c23)ccc1-c1cccc(F)c1 [B] |
|  | 4 | CN(Cc1cncc2cn[nH]c12)C(=O)c1ccc(-c2cccc(F)c2)c(OC2CC2)c1 [C] |
